Source: the NIST ThermoML archive (doi:10.1016/j.jct.2016.10.042)

Assay: xn = mol fraction of the nth substance listed
Conditions: 101 kPa, Liquid, Pycnometric method

C=CC(=O)OCC [ethyl propenoate] + C1CCOC1
mass density [kg/m3]
Conditions	293.15 K	298.15 K	303.15 K	308.15 K	313.15 K	318.15 K
x2 = 0	921.76	915.95	910.14	904.33	898.52	892.71
x2 = 0.0825	920.35	914.64	908.93	903.22	897.5	891.78
x2 = 0.167	918.74	913.11	907.48	901.85	896.22	890.59
x2 = 0.2302	917.35	911.79	906.23	900.67	895.1	889.53
x2 = 0.316	915.21	909.73	904.25	898.77	893.29	887.81
x2 = 0.3892	913.14	907.73	902.32	896.91	891.5	886.09
x2 = 0.4603	910.93	905.58	900.23	894.88	889.53	884.18
x2 = 0.5286	908.61	903.32	898.03	892.74	887.45	882.16
x2 = 0.5947	906.16	900.93	895.7	890.47	885.24	880
x2 = 0.6605	903.54	898.36	893.18	888	882.82	877.64
x2 = 0.7283	900.64	895.52	890.4	885.28	880.16	875.04
x2 = 0.7874	897.95	892.88	887.81	882.74	877.67	872.6
x2 = 0.8689	894	888.98	883.96	878.94	873.92	868.9
x2 = 0.936	890.52	885.53	880.54	875.55	870.56	865.57

C=CC(=O)OCCCC [butyl 2-propenoate] + C1CCOC1
mass density [kg/m3]
Conditions	293.15 K	298.15 K	303.15 K	308.15 K	313.15 K	318.15 K
x2 = 0	898.85	894.1	889.35	884.6	879.85	875.1
x2 = 0.0712	898.62	893.89	889.16	884.42	879.68	874.94
x2 = 0.1406	898.39	893.66	888.93	884.19	879.45	874.71
x2 = 0.208	898.1	893.37	888.64	883.91	879.17	874.43
x2 = 0.2779	897.74	893.01	888.27	883.53	878.79	874.05
x2 = 0.3685	897.14	892.4	887.66	882.91	878.16	873.41
x2 = 0.4339	896.6	891.85	887.1	882.35	877.59	872.83
x2 = 0.4996	895.97	891.21	886.45	881.69	876.92	872.15
x2 = 0.5642	895.25	890.48	885.71	880.93	876.15	871.37
x2 = 0.6426	894.22	889.43	884.64	879.85	875.05	870.25
x2 = 0.7208	893.03	888.22	883.41	878.59	873.77	868.95
x2 = 0.7956	891.72	886.88	882.04	877.2	872.36	867.51
x2 = 0.8642	890.32	885.45	880.58	875.71	870.84	865.97
x2 = 0.9322	888.76	883.86	878.96	874.05	869.14	864.23

C=CC(=O)OC [methyl propenoate] + C1CCOC1
mass density [kg/m3]
Conditions	293.15 K	298.15 K	303.15 K	308.15 K	313.15 K	318.15 K
x2 = 0	953.51	947.56	941.61	935.66	929.71	923.76
x2 = 0.0773	950.05	944.24	938.43	932.62	926.81	921
x2 = 0.1554	946.35	940.67	934.99	929.31	923.63	917.95
x2 = 0.2064	943.74	938.15	932.56	926.97	921.37	915.77
x2 = 0.2545	941.15	935.63	930.11	924.58	919.05	913.52
x2 = 0.3215	937.33	931.89	926.45	921	915.55	910.1
x2 = 0.3989	932.62	927.26	921.9	916.54	911.17	905.8
x2 = 0.4655	928.35	923.06	917.77	912.47	907.17	901.87
x2 = 0.53	924.03	918.8	913.57	908.33	903.09	897.85
x2 = 0.6023	918.98	913.81	908.64	903.47	898.3	893.13
x2 = 0.6834	913.02	907.92	902.82	897.72	892.62	887.52
x2 = 0.7632	906.87	901.83	896.79	891.75	886.7	881.65
x2 = 0.8468	900.16	895.17	890.18	885.19	880.19	875.19
x2 = 0.9316	893	888.04	883.08	878.12	873.16	868.2

C=CC(=O)OC(C)(C)C [tert-butyl acrylate] + C1CCOC1
mass density [kg/m3]
Conditions	293.15 K	298.15 K	303.15 K	308.15 K	313.15 K	318.15 K
x2 = 0	884.13	879.66	875.2	870.74	866.28	861.82
x2 = 0.0736	884.47	880.01	875.55	871.08	866.61	862.14
x2 = 0.1489	884.84	880.36	875.88	871.4	866.92	862.44
x2 = 0.2121	885.14	880.65	876.16	871.67	867.17	862.67
x2 = 0.2773	885.43	880.92	876.41	871.9	867.39	862.88
x2 = 0.362	885.78	881.25	876.71	872.17	867.63	863.09
x2 = 0.4382	886.06	881.5	876.94	872.37	867.8	863.23
x2 = 0.5024	886.28	881.69	877.1	872.5	867.9	863.3
x2 = 0.5815	886.5	881.87	877.24	872.61	867.98	863.35
x2 = 0.6532	886.66	882	877.34	872.67	868	863.33
x2 = 0.7268	886.79	882.08	877.37	872.66	867.95	863.24
x2 = 0.7921	886.88	882.13	877.38	872.62	867.86	863.1
x2 = 0.8698	886.97	882.15	877.33	872.51	867.69	862.86
x2 = 0.9352	887	882.12	877.24	872.36	867.48	862.59
